Assays:
[1] = biological target: T1, BRD4 bromo domain 1 [BRD4(1)] (Homo sapiens, UniProt O60885); test: BRD4/acetylated peptide H4 binding assay (TR-FRET), BRD4 bromo domain 1; details: inhibition of BRD4(1)/Ac-H4 peptide interaction
T1 construct: N-terminally His6-tagged BRD4(1) (amino acids 67-152); made in house; host or cells: E. coli
Procedure, shortened: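 TR-FRET (665/620 nm ratio) measuring displacement of biotinylated tetra-acetylated H4 peptide from His6-BRD4(1) (aa 67-152, E. coli; typically 10 nM) at pH 7.5. Compound (11 concentrations, 0.1 nM–20 μM, duplicates) was preincubated 10 min at 22°C, then 1 h at 22°C and ≥3 h at 4°C; IC50 from 4-parameter fit normalized to DMSO and no-BRD4 controls.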

[2] = biological target: T2, BRD4 bromo domain 2 [BRD4(2)] (Homo sapiens, UniProt O60885); test: BRD4/acetylated peptide H4 binding assay (TR-FRET), BRD4 bromo domain 2; details: inhibition of BRD4(2)/Ac-H4 peptide interaction
T2 construct: N-terminally His6-tagged BRD4(2) (amino acids 357-445); made in house; host or cells: E. coli
Procedure, shortened: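 Binding of His6-BRD4(2) (aa 357-445, 100 nM final) to biotinylated tetra-acetylated H4 peptide read by TR-FRET (665/620 nm). Compound preincubated 10 min at 22 °C, then 1 h at 22 °C plus ≥3 h at 4 °C. Eleven concentrations (0.1 nM–20 μM) in duplicate; IC50 by 4-parameter fit.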

| SMILES | IC50 [1] | IC50 [2] |
| --- | --- | --- |
| C[C@@H]1C(=O)N(C)c2ccc(Nc3cccc(C(=O)N(C)C)c3)cc2N1C1CCN(C(=O)OC(C)(C)C)CC1 [Example 105, tert-butyl 4-[(2R)-7-{[3-(dimethylcarbamoyl)phenyl]amino}-2,4-dimethyl-3-oxo-3,4-dihydroquinoxalin-1(2H)-yl]piperidine-1-carboxylate] | 0.208 µM | 0.598 µM |
| C[C@@H]1C(=O)N(C)c2ccc(Nc3cccc(C(=O)N(C)C)c3)cc2N1Cc1ccccc1 [Example 107, 3-{[(3R)-4-benzyl-1,3-dimethyl-2-oxo-1,2,3,4-tetrahydroquinoxalin-6-yl]amino}-N,N-dimethylbenzamide] | 0.385 µM | 0.117 µM |
| C[C@@H]1C(=O)N(C)c2ccc(Nc3cccc(C(=O)NC4CCN(C)CC4)c3)cc2N1C1CCOCC1 [Example 109, 3-{[(3R)-1,3-dimethyl-2-oxo-4-(tetrahydro-2H-pyran-4-yl)-1,2,3,4-tetrahydroquinoxalin-6-yl]amino}-N-(1-methylpiperidin-4-yl)benzamide] | 0.521 µM | 1.12 µM |
| C[C@@H]1C(=O)N(C)c2ccc(Nc3cccc(C(=O)N4CCN(C)CC4)c3)nc2N1C1CCNCC1 [Example 130, (3R)-1,3-dimethyl-6-({3-[(4-methylpiperazin-1-yl)carbonyl]phenyl}amino)-4-(piperidin-4-yl)-3,4-dihydropyrido[2,3-b]pyrazin-2(1H)-one] | 0.206 µM | 0.178 µM |

The remaining compounds from weak to strong by IC50 [1], led by results:

| IC50 [1] | IC50 [2] | SMILES |
| --- | --- | --- |
| 1.29 µM | 0.32 µM | CC1C(=O)N(C)c2ccc(N(C)c3cccc(S(=O)(=O)N(C)C)c3)cc2N1Cc1ccccc1 (stereo not shown) [Example 110, 3-[(4-benzyl-1,3-dimethyl-2-oxo-1,2,3,4-tetrahydroquinoxalin-6-yl)(methyl)amino]-N,N-dimethylbenzenesulphon-amide] |
| 0.575 µM | 0.52 µM | C[C@@H]1C(=O)N(C)c2ccc(Nc3cccc(C(=O)N[C@H]4CC[C@H](N5CCN(CC6CC6)CC5)CC4)c3)cc2N1C1CCOCC1 [Example 108, N-{trans-4-[4-(cyclopropylmethyl)piperazin-1-yl]cyclohexyl}-3-{[(3R)-1,3-dimethyl-2-oxo-4-(tetrahydro-2H-pyran-4-yl)-1,2,3,4-tetrahydroquinoxalin-6-yl]amino}benzamide] |
| 0.357 µM | 0.817 µM | C[C@@H]1C(=O)N(C)c2ccc(Nc3cccc(C(=O)N4CCN(C)CC4)c3)cc2N1C1CCOCC1 [Example 106, (3R)-1,3-dimethyl-6-({3-[(4-methylpiperazin-1-yl)carbonyl]phenyl}amino)-4-(tetrahydro-2H-pyran-4-yl)-3,4-dihydroquinoxalin-2(1H)-one] |
| 0.066 µM | 0.137 µM | C[C@@H]1C(=O)N(C)c2ccc(Nc3cccc(S(=O)(=O)NCCN(C)C)c3)nc2N1C1CCNCC1 [Example 128, N-[2-(dimethylamino)ethyl]-3-{[(3R)-1,3-dimethyl-2-oxo-4-(piperidin-4-yl)-1,2,3,4-tetrahydropyrido[2,3-b]pyrazin-6-yl]amino}-benzenesulphonamide] |

Reference: patent US20160176867A1, “MODIFIED BET-PROTEIN-INHIBITING DIHYDROQUINOXALINONES AND DIHYDROPYRIDOPYRAZINONES” (BAYER PHARMA AKTIENGESELLSCHAFT, priority 2013, published 2016)
